Experimental data: US8221991B2, “Orphan nuclear receptor” (priority 1998, dated 2012)
“Also recorded” adds a separate entry of the source.

Legend:
hPXR [1] = biological target: T1, hPXR (Homo sapiens, UniProt O75469); assay: Cotransfection assay, pSG5-hPXR ATG with (IR6)3-tk-CAT reporter in CV-1 cells; settings: for activation of hPXR (CAT activity): 1 μM lovastatin, 100 μM phenobarbital, 10 μM of the other compounds
T1 sequence (O75469 1-434): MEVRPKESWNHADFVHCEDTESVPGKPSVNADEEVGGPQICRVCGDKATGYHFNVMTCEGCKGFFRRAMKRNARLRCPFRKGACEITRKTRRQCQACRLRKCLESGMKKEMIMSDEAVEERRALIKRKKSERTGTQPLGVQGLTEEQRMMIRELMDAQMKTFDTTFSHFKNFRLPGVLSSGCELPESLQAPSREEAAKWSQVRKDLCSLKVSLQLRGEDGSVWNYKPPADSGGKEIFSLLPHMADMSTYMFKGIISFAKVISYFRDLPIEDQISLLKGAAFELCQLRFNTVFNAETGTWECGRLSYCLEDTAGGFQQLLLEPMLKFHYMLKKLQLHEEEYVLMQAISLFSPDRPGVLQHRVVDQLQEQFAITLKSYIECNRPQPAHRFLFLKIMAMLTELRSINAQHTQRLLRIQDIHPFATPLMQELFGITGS
Experimental: (§1) Cells were treated with 1 μM mevastatin or lovastatin, 100 μM phenobarbital, or 10 μM of the other compounds. Cell extracts were subsequently assayed for CAT activity. […] (FIG. 4C) CARLA was performed with bacterially-expressed GST-hPXR or GST-mPXR1 and [^35S]SRC1.14 synthesized in vitro. […] [^35S]SRC1.14 complexed with GST-hPXR (top panel) or GST-mPXR1 (bottom panel) was precipitated with glutathione-sepharose beads.
(§2) CV-1 cells were plated in 24-well plates in DME medium supplemented with 10% charcoal-stripped fetal calf serum at a density of 1.2×10^5 cells per well. […] Cells were transfected overnight by lipofection using Lipofectamine (Life Technologies, Inc.), according to the manufacturer's instructions. The medium was changed to DME medium supplemented with 10% delipidated calf serum (Sigma) and cells were incubated for an additional 24 hours.
To determine, whether hPXR could regulate transcription through the IR6 motif, a reporter plasmid was generated containing three copies of the CYP3A4 IR6 response element upstream of the tk promoter and CAT gene.
It was next determined whether hPXR might mediate the effects of some or all of these compounds on CYP3A4 expression. CV-1 cells were cotransfected with the pSG5-hPXR ATG expression plasmid and the (IR6)3-tk-CAT reporter plasmid, and the cells were treated with micromolar concentrations of a number of compounds that are known to induce CYP3A gene expression in humans and/or rodents.

Biotin-His6-PXR/RXRα = biological target: T2, Biotin-His6-PXR/RXRα (Homo sapiens, UniProt O75469); assay: biochemical
T2 sequence (O75469 with tags, fused parts or gaps): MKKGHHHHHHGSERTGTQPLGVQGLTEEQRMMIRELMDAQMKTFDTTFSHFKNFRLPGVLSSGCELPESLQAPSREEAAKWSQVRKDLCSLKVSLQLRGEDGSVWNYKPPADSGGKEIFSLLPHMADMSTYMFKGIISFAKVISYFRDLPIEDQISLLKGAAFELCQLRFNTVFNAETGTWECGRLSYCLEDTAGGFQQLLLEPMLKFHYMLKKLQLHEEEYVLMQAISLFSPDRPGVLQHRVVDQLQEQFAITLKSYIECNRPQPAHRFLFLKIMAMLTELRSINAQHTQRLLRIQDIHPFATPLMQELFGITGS
T2 sequence (P19793 with tags, fused parts or gaps partner limits assumed): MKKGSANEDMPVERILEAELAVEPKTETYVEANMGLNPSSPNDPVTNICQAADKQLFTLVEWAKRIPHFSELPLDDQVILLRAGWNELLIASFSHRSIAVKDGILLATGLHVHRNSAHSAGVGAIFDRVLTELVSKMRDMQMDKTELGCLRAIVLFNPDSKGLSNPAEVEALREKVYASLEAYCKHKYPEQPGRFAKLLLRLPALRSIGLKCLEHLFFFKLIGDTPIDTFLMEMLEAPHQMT
Experimental: Test compounds were dissolved in DMSO at 10 mM and diluted 1:10 in DMSO before serially diluting in assay buffer. […] Streptavidin-PVT SPA beads (AmershamPharmacia cat 4 RPNQ0007) were resuspended in assay buffer (50 mM Tris HCl pH 8.0, 50 mM KCl, 1 mM DTT, 0.1 mg/ml essentially fatty acid free bovine serum albumin) at 0.5 mg/ml. Biotin-His6-PXR/RXRα was added to the beads to a final concentration of 50 nM. The receptors were allowed to couple to the SPA beads for thirty minutes at room temperature. The uncoupled receptor was removed by centrifuging the SPA beads at 3000 rpm for 5 minutes in a swinging bucket rotor of a Rupp & Bowman Silencer centrifuge. The receptor coated SPA beads were then resuspended in assay buffer to 3.3 mg/ml. […] The total volume in each well was 100 μL. […] The plates were then allowed to incubate at room temperature until equilibrium was obtained, approximately 1.5 hours. The plates were then counted on a TopCount liquid scintillation counter (Packard) using a protocol optimized for ^3H PVT SPA and programmed to correct for color quenching.

CYP3A4 gene expression = settings: cited from earlier work
CYP3A1 levels = settings: cited from earlier work
GST-mPXR1 [2] = biological target: T3, GST-mPXR1 (Mus musculus, UniProt O54915); settings: Kliewer et al, Cell 92:73-82 (1998); cited from earlier work
T3 construct: The LBDs of hPXR and mPXR1 were expressed in E. coli as fusion proteins with glutathione-S-transferase (GST); made in house; host or cells: E. coli
T3 sequence (O54915 143-430 limits assumed): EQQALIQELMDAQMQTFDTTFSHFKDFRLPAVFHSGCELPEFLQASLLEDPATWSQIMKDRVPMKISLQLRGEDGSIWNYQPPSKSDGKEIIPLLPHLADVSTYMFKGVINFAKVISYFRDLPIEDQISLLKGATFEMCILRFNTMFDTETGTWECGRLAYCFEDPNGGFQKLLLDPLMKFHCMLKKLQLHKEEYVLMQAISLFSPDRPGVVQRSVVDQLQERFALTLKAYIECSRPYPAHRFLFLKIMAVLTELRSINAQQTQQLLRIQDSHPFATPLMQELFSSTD
T3 sequence (Q15788 whole entry partner, the tested form may be a part): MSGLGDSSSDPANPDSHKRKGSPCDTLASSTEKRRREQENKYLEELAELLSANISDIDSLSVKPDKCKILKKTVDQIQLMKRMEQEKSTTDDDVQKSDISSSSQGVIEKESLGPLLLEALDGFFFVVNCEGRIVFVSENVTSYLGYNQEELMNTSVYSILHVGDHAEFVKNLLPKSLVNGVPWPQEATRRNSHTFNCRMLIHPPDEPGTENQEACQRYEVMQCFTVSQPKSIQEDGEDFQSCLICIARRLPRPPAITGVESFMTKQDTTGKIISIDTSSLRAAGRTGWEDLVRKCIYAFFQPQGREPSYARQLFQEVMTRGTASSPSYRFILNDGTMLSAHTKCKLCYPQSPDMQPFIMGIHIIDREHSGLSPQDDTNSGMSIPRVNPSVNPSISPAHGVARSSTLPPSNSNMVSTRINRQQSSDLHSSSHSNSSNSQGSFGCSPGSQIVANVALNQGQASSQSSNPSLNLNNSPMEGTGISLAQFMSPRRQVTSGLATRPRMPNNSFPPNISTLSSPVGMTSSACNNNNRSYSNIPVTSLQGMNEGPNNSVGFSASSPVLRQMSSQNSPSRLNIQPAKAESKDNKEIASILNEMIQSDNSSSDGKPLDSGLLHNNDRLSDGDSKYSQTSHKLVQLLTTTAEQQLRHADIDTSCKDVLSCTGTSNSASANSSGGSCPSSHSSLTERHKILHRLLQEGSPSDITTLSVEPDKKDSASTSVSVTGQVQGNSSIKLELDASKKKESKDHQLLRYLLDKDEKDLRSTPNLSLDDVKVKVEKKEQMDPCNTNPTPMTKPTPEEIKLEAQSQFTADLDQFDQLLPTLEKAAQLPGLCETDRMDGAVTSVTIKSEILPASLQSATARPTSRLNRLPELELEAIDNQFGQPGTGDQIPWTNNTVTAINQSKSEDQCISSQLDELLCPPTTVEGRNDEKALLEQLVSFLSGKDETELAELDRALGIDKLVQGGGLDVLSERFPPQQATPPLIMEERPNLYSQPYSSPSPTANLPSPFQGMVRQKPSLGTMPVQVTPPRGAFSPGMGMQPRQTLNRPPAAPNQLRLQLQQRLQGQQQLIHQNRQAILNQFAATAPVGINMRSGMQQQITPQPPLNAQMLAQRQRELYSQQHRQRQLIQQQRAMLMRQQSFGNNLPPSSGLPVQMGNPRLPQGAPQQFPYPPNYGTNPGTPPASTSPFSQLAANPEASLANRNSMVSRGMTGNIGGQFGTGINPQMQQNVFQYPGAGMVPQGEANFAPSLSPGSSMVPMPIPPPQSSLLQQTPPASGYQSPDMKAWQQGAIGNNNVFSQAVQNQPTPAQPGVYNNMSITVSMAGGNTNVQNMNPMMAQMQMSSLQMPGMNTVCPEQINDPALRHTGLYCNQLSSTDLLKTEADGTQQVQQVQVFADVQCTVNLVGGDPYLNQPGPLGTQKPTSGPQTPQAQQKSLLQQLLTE

mPXR1 = mPXR1 (Mus musculus, UniProt O54915); settings: CV-1 cells, (IR6)3-tk-CAT reporter; 10 μM
Sequence of mPXR1 (O54915 whole entry): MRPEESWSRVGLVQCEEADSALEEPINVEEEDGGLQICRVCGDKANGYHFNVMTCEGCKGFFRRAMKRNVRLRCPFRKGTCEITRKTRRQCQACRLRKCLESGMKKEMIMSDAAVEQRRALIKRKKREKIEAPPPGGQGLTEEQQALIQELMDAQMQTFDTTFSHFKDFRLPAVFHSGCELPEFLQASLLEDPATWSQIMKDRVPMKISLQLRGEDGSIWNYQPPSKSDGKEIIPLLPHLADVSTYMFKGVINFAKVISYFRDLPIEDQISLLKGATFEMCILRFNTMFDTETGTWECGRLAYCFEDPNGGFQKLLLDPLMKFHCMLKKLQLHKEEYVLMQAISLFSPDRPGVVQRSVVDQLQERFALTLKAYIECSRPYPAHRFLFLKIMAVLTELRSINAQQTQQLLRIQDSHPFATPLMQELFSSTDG

GST-mPXR1 [3] = biological target: T3, GST-mPXR1; assay: Coactivator-receptor ligand assay (CARLA), GST-mPXR1 with [35S]SRC1.14; format: binding; settings: 10 μM
Experimental: as §1
GST-hPXR fusion protein was expressed in BL21(DE3)plysS cells and bacterial extracts prepared by one cycle of freeze-thaw of the cells in Protein Lysis. Buffer containing 10 mM Tris, pH 8.0, 50 mM KCl, 10 mM DTT, and 1% NP-40 followed by centrifugation at 40,000×g for 30 minutes. Glycerol was added to the resulting supernatant to a final concentration of 10%. Lysates were stored at −80° C. [^35S]SRC1.14 was generated using the TNT rabbit reticulocyte system (Promega) in the presence of Pro-Mix (Amersham). Coprecipitation reactions included 25 μl of lysate containing GST-hPXR fusion protein, 25 μl Incubation Buffer (50 mM KCl, 40 mM HEPES pH 7.5, 5 mM β-mercaptoethanol, 1% Tween-20, 1% non-fat dry milk), 5 μl […], and vehicle (1% DMSO) or compounds as indicated. […]

hPXR [4] = biological target: T1, hPXR; settings: CV-1 cells; 10 μM
Experimental: FIGS. 1A-1D. […] Cell extracts were subsequently assayed for CAT activity.
as §2

CC[C@H](C)C(=O)O[C@H]1C[C@@H](C)C=C2C=C[C@H](C)[C@H](CC[C@@H]3C[C@@H](O)CC(=O)O3)[C@H]21 [lovastatin]
activation of hPXR (CAT activity) (hPXR [1]): activated; also recorded: more efficacious activators of hPXR than mPXR1

CC(=O)[C@H]1CC[C@H]2[C@@H]3CC[C@@H]4CC(=O)CC[C@]4(C)[C@H]3CC[C@]12C [5 β-pregnane-3,20-dione]
fold activation of hPXR (hPXR [1]; 10 μM): roughly 4 fold | IC50 (Biotin-His6-PXR/RXRα): 1000 nM

CC(=O)[C@H]1[C@H](C#N)C[C@H]2[C@@H]3CC=C4C[C@@H](O)CC[C@]4(C)[C@H]3CC[C@@]21C [PCN]
induction of CYP3A4 gene expression / CYP3A levels in human hepatocytes (CYP3A4 gene expression): only modest effects | effect on CYP3A1 / CYP3A levels in rat hepatocytes (CYP3A1 levels): marked effects | interaction of the mPXR1 LBD with SRC1.14 (GST-mPXR1 [2]): promote the interaction | fold activation of mPXR1 (mPXR1): roughly 9 fold | activation of hPXR (CAT activity) (hPXR [1]): activated

Clc1ccccc1C(c1ccccc1)(c1ccccc1)n1ccnc1 [clotrimazole]
interaction between GST-mPXR1 and [35S]SRC1.14 (GST-mPXR1 [3]): did not | IC50 (Biotin-His6-PXR/RXRα): 1300 nM

ClC1=C(Cl)[C@]2(Cl)[C@H]3[C@H]([C@H](Cl)C(Cl)[C@@H]3Cl)[C@@]1(Cl)C2(Cl)Cl (stereo partly drawn) [transnonachlor]
activation of hPXR (CAT activity) (hPXR [1]): activated

C[C@@H]1C[C@H]2[C@@H]3CCC4=CC(=O)C=C[C@]4(C)[C@@]3(F)[C@@H](O)C[C@]2(C)[C@@]1(O)C(=O)COC(=O)CC(C)(C)C [dexamethasone-t-butylacetate]
activation of hPXR (CAT activity), CYP3A1 DR3 PXRE reporter (hPXR [4]): activated efficiently | activation of hPXR (CAT activity) (hPXR [1]): induced reporter levels; also recorded: activated | activation of hPXR (CAT activity) (hPXR [1]; listed as Dexamethasone-t-butylacetate): most efficacious activators

CCC1(c2ccccc2)C(=O)NC(=O)NC1=O [phenobarbital]
activation of hPXR (CAT activity) (hPXR [1]): activated; also recorded: more efficacious activators of hPXR than mPXR1
